For data set [1], the system named is mouse. To be noted: Multigenerational reproductive toxicity study, cd1, Oral, Feed, dose end: 2 generation.
The test system of data set [2] is mouse. To be noted: Carcinogenicity, b6c3f1, Oral, Feed, dose end: 2 year, group: systemic.
Data set [3] has as its system rat. To be noted: Subchronic oral toxicity in rodents, fischer, Feed, dose end: 13 week, group: systemic.
Data set [4] relates to rat. Conditions: Carcinogenicity, fischer, Oral, Feed, dose end: 2 year, group: systemic, systemic / in life observation / clinical signs / urine.
Data set [5] concerns mouse. Conditions: Subchronic oral toxicity in rodents, b6c3f1, Feed, dose end: 13 week, group: systemic.
Data set [6] concerns dog. To be noted: Chronic toxicity; beagle; Oral; Feed; dose end: 104 week; group: systemic; systemic / clinical chemistry / [other] / [other] + systemic / pathology microscopic / liver / pigmentation + systemic / pathology ….
The subject of data set [7] is rat. To be noted: Subchronic oral toxicity in rodents, wistar, Feed, dose end: 13 week, group: systemic, systemic / organ weight / spleen / absolute + systemic / organ weight / spleen / relative to body weight + systemic / pathology microscopic….
The subject of data set [8] is rat. To be noted: Acute dermal toxicity, other, Topical, dose end: 28 day, group: systemic, systemic / pathology microscopic / thymus / necrosis.
Data set [9] deals with mouse. Conditions: Carcinogenicity, cd1, Oral, Feed, dose end: 80 week, group: systemic.
Data set [10] relates to rat. To be noted: Chronic toxicity, other, Oral, Feed, dose end: 102 week, group: systemic.
The subject of data set [11] is dog. To be noted: Subchronic oral toxicity in nonrodent, beagle, Capsule, dose end: 13 week, group: systemic, systemic / clinical chemistry / albumin / albumin + systemic / clinical chemistry / protein / protein + systemic / in life observation / ….
Data set [12] concerns dog. To be noted: Chronic toxicity, beagle, Oral, Capsule, dose end: 12 month, group: systemic.
The test system of data set [13] is rat. To be noted: Multigenerational reproductive toxicity study, sprague dawley, Oral, Feed, dose end: 2 generation.
The subject of data set [14] is mouse. To be noted: Carcinogenicity, cd1, Oral, Feed, dose end: 24 month, group: systemic.
In data set [15] the test system is rat. Conditions: Combined chronic toxicity/carcinogenicity; sprague dawley; Oral; Feed; dose end: 24 month; group: systemic; systemic / in life observation / body weight / body weight.
Data set [16] concerns rat. To be noted: Prenatal developmental toxicity study, sprague dawley, Oral, Gavage/Intubation, dose end: 20 GD.
For data set [17], the system named is hamster. To be noted: Chronic toxicity, Oral, Feed, dose end: 24 month, group: systemic.
Data set [18] has as its system rat. Conditions: Subchronic oral toxicity in rodents, sprague dawley, Feed, dose end: 90 day, group: systemic.
Setting [19] is: group: offspring, systemic / in life observation / body weight / offspring (pup) weight.
Where [20] appears, read: group: parental, systemic / in life observation / food consumption / food consumption.
The mark [21] stands for this setting: group: reproductive, reproductive / offspring survival early / live fetuses / live fetuses + reproductive / reproductive performance / fertility / fertility.
[22] abbreviates: systemic / in life observation / body weight / body weight + systemic / pathology microscopic / epididymis / atypia cellular + systemic / ….
Where [23] appears, read: systemic / in life observation / clinical signs / urine, discoloration + systemic / pathology microscopic / adrenal gland / hyperplasia + ….
The mark [24] stands for this setting: systemic / in life observation / clinical signs / urine, discoloration.
[25] abbreviates: discoloration + systemic / pathology microscopic / kidney / adenoma + systemic / ….
[26] abbreviates: systemic / pathology microscopic / stomach / ulcer + systemic / hematology / anemia / anemia - nos + systemic / hematology / hematocrit (hct….
Setting [27] is: systemic / clinical chemistry / [other] / [other].
[28] abbreviates: systemic / clinical chemistry / [other] / [other] + systemic / pathology microscopic / intestine small / pigmentation + systemic / pathology….
Setting [29] is: systemic / in life observation / body weight / body weight gain + systemic / organ weight / liver / relative to body weight.
[30] abbreviates: systemic / in life observation / body weight / body weight gain + systemic / organ weight / liver / relative to body weight + systemic / ….
Setting [31] is: group: offspring, systemic / in life observation / body weight / offspring (pup) weight + systemic / organ weight / brain / absolute + systemic / organ weight….
Where [32] appears, read: group: parental, systemic / organ weight / liver / relative to body weight + systemic / hematology / hematocrit (hct) / hematocrit (hct) + systemic / ….
[33] abbreviates: group: parental, systemic / organ weight / liver / relative to body weight + systemic / in life observation / body weight / body weight + systemic / in life ….
The mark [34] stands for this setting: group: reproductive, reproductive / offspring survival early / litter size / litter size.
Setting [35] is: systemic / in life observation / food consumption / food consumption.
Where [36] appears, read: group: developmental, developmental / developmental malformation / bone / misaligned + developmental / developmental malformation / general / hemorrhage + ….
Where [37] appears, read: group: maternal, systemic / in life observation / body weight / body weight + systemic / in life observation / body weight / body weight gain + systemic / in….
The mark [38] stands for this setting: systemic / in life observation / mortality / mortality + systemic / pathology microscopic / kidney / inflammation.
[39] abbreviates: systemic / in life observation / mortality / mortality + systemic / pathology microscopic / kidney / inflammation + systemic / pathology ….
[40] abbreviates: systemic / in life observation / body weight / body weight gain + systemic / organ weight / heart / relative to body weight.

Bounds are passed on as bounds.

Take `O=C1CN(/N=C/c2ccc([N+](=O)[O-])o2)C(=O)N1` [Nitrofurantoin]: the LEL in data set [1] (setting [19]) was found to be 99.2 mg/kg/day; in data set [1] (setting [20]), 164 mg/kg/day; in [1] (setting [21]) it was 213 mg/kg/day; in [2] (setting [23]) it was 280 mg/kg/day; in data set [3] (setting [24]), 30 mg/kg/day; in data set [4] (discoloration) it was 30 mg/kg/day. Moreover, the LEL in [5] (systemic / pathology microscopic / testes / aspermatogenesis + systemic / pathology microscopic / testes / degeneration) is 195 mg/kg/day. Further, the LOAEL – broadly, the lowest dose or exposure tested at which an adverse effect was seen – is greater than 213 mg/kg/day in data set [1] (setting [19]); greater than 164 mg/kg/day in data set [1] (setting [20]); greater than 213 mg/kg/day in [1] (setting [21]); 570 mg/kg/day in data set [2] (setting [22]); 125 mg/kg/day in data set [3] (systemic / in life observation / body weight / body weight + systemic / pathology microscopic / testes / degeneration); greater than 60 mg/kg/day in data set [4] (setting [25]). Further, the LOAEL in data set [5] (systemic / in life observation / body weight / body weight + systemic / pathology microscopic / ovary / necrosis + systemic / pathology …) was found to be 750 mg/kg/day. The NEL is 43.8 mg/kg/day in [1] (setting [19]); 88.7 mg/kg/day in [1] (setting [20]); 99.2 mg/kg/day in data set [1] (setting [21]); less than 280 mg/kg/day in data set [2] (setting [23]); less than 30 mg/kg/day in data set [3] (setting [24]); less than 30 mg/kg/day in [4] (discoloration). Besides, the NEL in [5] (systemic / pathology microscopic / testes / aspermatogenesis + systemic / pathology microscopic / testes / degeneration + systemic / in life…) came out at 90 mg/kg/day. Also, the NOAEL – broadly, the highest dose or exposure tested at which no adverse effect was seen – in data set [1] (setting [19]) was no less than 213 mg/kg/day; in [1] (setting [20]), no less than 164 mg/kg/day; in [1] (setting [21]) it was no less than 213 mg/kg/day; in data set [2] (setting [22]), 300 mg/kg/day; in data set [3] (systemic / in life observation / body weight / body weight + systemic / in life observation / clinical signs / urine, discoloration + …), 65 mg/kg/day; in [4] (setting [25]) it was no less than 60 mg/kg/day. Moreover, in [5] (systemic / in life observation / body weight / body weight + systemic / pathology microscopic / ovary / necrosis + systemic / in life …), the NOAEL is 375 mg/kg/day.
Consider `Oc1cccc2cccnc12.Oc1cccc2cccnc12.[Cu]` [Copper-8-hydroxyquinoline (1:2)], for which the LEL amounted to 25 mg/kg/day in data set [6]; 100 mg/kg/day in data set [7]; 1000 mg/kg/day in [8]; 208 mg/kg/day in data set [9] (systemic / pathology microscopic / stomach / ulcer + systemic / pathology microscopic / spleen / hematopoietic cell proliferation); 0.25 mg/kg/day in [10] (setting [27]); 50 mg/kg/day in [11]. The lowest observed adverse effect level (LOAEL) in data set [6] is 25 mg/kg/day; in data set [7], 100 mg/kg/day; in [8], 1000 mg/kg/day; in data set [9] (systemic / pathology microscopic / stomach / ulcer), 208 mg/kg/day; in [10] (setting [28]) it was 100 mg/kg/day; in [11], 50 mg/kg/day. Besides, the NEL in data set [6] is 5 mg/kg/day; in data set [7], 30 mg/kg/day; in [8], 200 mg/kg/day; in data set [9] (setting [26]), 57.1 mg/kg/day; in data set [10] (setting [27]), less than 0.25 mg/kg/day; in data set [11] it was 5 mg/kg/day. Further, the NOAEL in [6] is 5 mg/kg/day; in data set [7], 30 mg/kg/day; in [8], 200 mg/kg/day; in data set [9] (setting [26]) it was 57.1 mg/kg/day; in data set [10] (setting [28]), 25 mg/kg/day; in data set [11], 5 mg/kg/day.
As for `CCSC(=O)N(CC(C)C)CC(C)C` [Butylate], the LEL in [12] (setting [29]) was 25 mg/kg/day; in [13] (setting [31]), 50 mg/kg/day; in data set [13] (setting [33]), 50 mg/kg/day; in [13] (setting [34]) it was 200 mg/kg/day; in data set [14] (setting [35]) it was 20 mg/kg/day; in data set [15] it was 100 mg/kg/day. For the same molecule, the LEL in [16] (setting [36]) and in data set [16] (setting [37]) was 400 mg/kg/day in each case. For the same molecule, the LOAEL in data set [12] (setting [29]) was 25 mg/kg/day; in data set [13] (setting [31]), 50 mg/kg/day; in data set [13] (setting [33]), 50 mg/kg/day; in data set [13] (setting [34]) it was greater than 200 mg/kg/day; in [14] (systemic / in life observation / body weight / body weight + systemic / pathology microscopic / kidney / amyloid deposition + systemic / …), 80 mg/kg/day; in data set [15], 100 mg/kg/day. In addition, the LOAEL in data set [16] (setting [36]) and in data set [16] (setting [37]) was 400 mg/kg/day throughout. Further, the NEL is 5 mg/kg/day in data set [12] (setting [30]); 10 mg/kg/day in data set [13] (setting [19]); 10 mg/kg/day in [13] (setting [32]); 50 mg/kg/day in data set [13] (setting [34]); less than 20 mg/kg/day in data set [14] (setting [35]); 50 mg/kg/day in [15]. Besides, the NEL in data set [16] (setting [36]) and in data set [16] (setting [37]) was 40 mg/kg/day throughout. The NOAEL was 5 mg/kg/day in data set [12] (setting [30]); 10 mg/kg/day in data set [13] (setting [19]); 10 mg/kg/day in data set [13] (setting [32]); no less than 200 mg/kg/day in data set [13] (setting [34]); 20 mg/kg/day in data set [14] (systemic / in life observation / food consumption / food consumption + systemic / in life observation / body weight / body weight + systemic…); 50 mg/kg/day in [15]. Besides, the NOAEL in data set [16] (setting [36]) and in [16] (setting [37]) was 40 mg/kg/day in each case.
In the case of `O=[N+]([O-])c1ccc(O)cc1C(F)(F)F` [3-Trifluoromethyl-4-nitrophenol], in data set [17] (setting [38]), the LOAEL came out at 24.9 mg/kg/day and the NOAEL was less than 24.9 mg/kg/day. In [17] (setting [39]), the LEL is 24.9 mg/kg/day and the NEL is less than 24.9 mg/kg/day. Further, in [18] (setting [40]), the LOAEL is 146 mg/kg/day, the NEL is 25 mg/kg/day and the NOAEL is 81 mg/kg/day. The molecule also displayed an LEL in data set [18] (systemic / organ weight / heart / relative to body weight) of 45 mg/kg/day.

The record behind these values is EPA's ToxRefDB 2.
